The structures appear in SMILES notation.

Results on one molecule are retold here after patent US20260138981A1, “DIHYDROFOLATE REDUCTASE INHIBITORS FOR ANTI-BIOTIC RESISTANT INFECTIONS” (THE TRUSTEES OF PRINCETON UNIVERSITY, priority 2022, published 2026).

Assay [1] deals with P. aeruginosa PA14. The experiment in a line: Membrane permeability, TO-PRO-3 flow cytometry. The class given is cell-based. The following applies: PA14, 2×MIC, 15 min. As for the experimental part: FIG. 5A provides flow cytometry results of PA14 stained with the membrane permeability dye TO-PRO-3. […]. The gates were determined for TO-PRO-3 staining using solvent only and polymixin B controls.
The ability of fluorofolin to permeabilize P. aeruginosa PA14 was examined. Specifically, flow cytometry of P. aeruginosa stained with TO-PRO-3 was used, treated the bacteria with 2×MIC, and analyzed membrane integrity. […] It was hypothesized that this decrease in membrane targeting might also decrease toxicity due to the disruption of eukaryotic membranes.
Overnight P. aeruginosa PA14 or E. coli lptD4213 cultures were diluted 1:100 and grown to mid exponential phase at 37° C. Cultures were diluted 1:10 into PBS and treated with antibiotics for 15 minutes. P. aeruginosa PA14 was stained with TO-PRO-3 (640 nm excitation, 670/30 nm emission) to measure cell membrane integrity. […] DiOC2(3) was evaluated as a ratio of green (488 nm excitation, 525/50 nm emission) to red (488 nm excitation, 610/20 nm emission) (Novo et al., 1999). […] 100,000 events were recorded for each data file. Gates for permeabilization were determined using Polymixin B (Sigma-Aldrich P1004) and untreated controls. Gates for depolarization were determined using CCCP as a positive control. Data was analyzed using FlowJo v10 software (FlowJo LLC, Ashland, OR).

Assay [2] concerns the target T1, purified E. coli DHFR (FolA) (Escherichia coli, UniProt P0ABQ4).
T1 construct: purchased Genscript (Piscataway, NJ)
The experiment in a line: In vitro DHFR (FolA) activity, NADPH consumption at 340 nm. Type of assay: biochemical. The following applies: Hill equation fit.

Assay [3] relates to CDC & FDA Antibiotic Resistant P. aeruginosa Isolate Bank. Description: CDC clinical isolate panel growth inhibition. The class given is cell-based. The following applies: 50 μg/mL. Here is the method:
Strains with growth inhibition>80% were considered sensitive to fluorofolin treatment.
Clinical isolates^45 were inoculated into LB Broth a 96-well flat bottom plate and grown overnight to stationary phase at 37° C. […] Percent growth was calculated by dividing OD600 of fluorofolin antibiotic treated wells to vehicle only wells.

Assay [4] relates to P. aeruginosa PA14. The experiment in a line: Murine thigh infection model of PA14. Type of assay: in vivo, mouse. The following applies: 24 hours. As for the experimental part: FIG. 2C quantifies treatment of mice with fluorofolin (SC) with or without SMX 100 mg/kg (IP).
FIG. 2D characterizes Fluorofolin and SMX treatment of mice fed a diet of thymidine-supplemented chow during PA14 infection. Mice were treated 1 and 12 hours post infection (n=5 for each group). P values from Tukey's multiple comparisons test (P-values≤0.0001).
To investigate the ability of fluorofolin to clear a P. aeruginosa infection in vivo, a murine thigh infection model of PA14 was employed. The maximum tolerated dose of fluorofolin was determined to be 25 mg/kg administered subcutaneously (SC). […] We note that this dose of SMX was previously used to mimic clinically-relevant levels of SMX used for cotreatment with TMP in humans. Mice were inoculated with 5.33 log CFU of P. aeruginosa PA14 CFU of PA14 and treated SC with fluorofolin at 25 mg/kg at 1 and 12 hours post infection. Thighs were harvested 24 hours post infection to determine bacterial load.
It was also sought to support the feasibility of thymidine supplementation in vivo by testing the hypothesis that fluorofolin should remain active in the presence of thymidine supplementation. […]
Female 5-6-week-old CD-1 mice were made neutropenic through intraperitoneal (IP) cyclophosphamide treatment (Cytoxan) prior to this study. […] In vivo efficacy was evaluated by the University of North Texas Health Science Center (Fort Worth, Texas).

Assay [5] relates to PA14 mutants with disruptions in mexA, mexB and oprM. Description: MIC against MexAB-OprM transposon mutants. Type of assay: cell-based, P. aeruginosa. The following applies: oprM transposon mutants vs wildtype PA14. Here is the method: FIG. 1I is the minimum inhibitory concentration of fluorofolin or trimethoprim against transposon mutants for each component of the MexAB-OprM efflux pump. MIC against wildtype PA14 was calculated to control for each drug stock. MIC values are representative of two independent replicates.
P. aeruginosa PA14 transposon mutants were generated by the Ausubel Lab (http://ausubellab.mgh.harvard.edu/cgi-bin/pa14/home.cgi). The MICs of fluorofolin and TMP against strains with disrupted MexA, MexB, and OprM were determined as above and compared to the parental strain. As transposon mutants in MexB were represented twice in this collection, the MIC was confirmed across both mutant strains.

Assay [6] relates to folate metabolism in P. aeruginosa. The experiment in a line: Metabolomics (LC-MS metabolite abundance). Type of assay: cell-based. The following applies: PA14, 2×MIC for 15 min, vs solvent control; P=0.0186 and 0.0196. As for the experimental part:
Metabolite abundance was quantified in comparison to the solvent only control. Data represents mean±SD for 3 biological replicates. P values were calculated using unpaired t-test using Prism 9 (P values≤0.05)
To test the ability of fluorofolin to inhibit P. aeruginosa DHFR in vivo, metabolomics were performed. As a positive control for DHFR inhibition, we turned to TMP.
Overnight P. aeruginosa PA14 cultures were diluted 1:150 in Gutnick Minimal Media and grown to early-mid exponential phase (OD600=0.4-0.6).
LC-MS analysis of metabolites was performed on Orbitrap Exploris 240 mass spectrometer coupled with hydrophilic interaction liquid chromatography (HILIC)^64. […] Flow rate was 0.15 mL/min, and column temperature was set at 25° C. […] The orbitrap resolution was 180,000 at m/z of 200. The maximum injection time was 200 ms, and the automatic gain control (AGC) target was 1000%. Raw mass spectrometry data were converted to mzXML format by MSConvert (ProteoWizard). Pick-peaking was done on El Maven (v0.8.0, Elucidata).

`Nc1nc(N)c2c(ccc3c2ccn3Cc2ccnc(F)c2)n1` [fluorofolin]: the “disruption of membranes (TO-PRO-3)” value in the assay with P. aeruginosa PA14 [1] is reported as “does not cause significant disruption”. Further, the IC50 in assay [2] is 2.5 ± 1.1 nM. For the same molecule, in assay [3], the “sensitivity of isolates expressing KPC-5 and NDM-1 carbapenemase genes” value is recorded as “remained sensitive”; the “sensitivity of strains 7, 18 and 23 of the CDC panel (dfrB2)” value is recorded as “fluorofolin-sensitive”. This molecule gave a clinical isolates resistant in assay [3] (OD600 vs vehicle control) of 14.5%. The “growth of PA14 in thigh (bacterial load)” value in the assay with P. aeruginosa PA14 [4] (fluorofolin 25 mg/kg SC + SMX 100 mg/kg IP at 1 and 12 hours post infection, vs no treatment and SMX alone, P<0.0001) is listed as “significantly inhibited the growth of PA14”. For the same molecule, the “P. aeruginosa load in thigh, thymidine-supplemented diet” value with P. aeruginosa PA14 [4] (fluorofolin and SMX, mice fed thymidine-supplemented chow, vs untreated mice) was “significant reduction”. Also, in assay [5], the “change of MIC in efflux pump mutants” value is on record as “did not decrease their MIC against fluorofolin to the same extent”. In assay [6], the “abundance of AICAR and dUMP” value is on record as “significant upregulation”.
